ChEMBL document CHEMBL1201862, “PubChem BioAssay data set” (2004)
Several values for one entry are separate records, joined by “and”; a condition that tells them apart may be missing. Identical values can stand only once. Activity calls are given as the source filed them.

Tests used:
[1] = system: Streptococcus sp. 'group A'; assay: growth inhibition of control SK(-) GAS strain, dose response, counter-screen for streptokinase expression inhibitor project, luminescence, kanamycin, BacTiterGlo, confirmation (AID 1900); assay type: functional, organism-based
Streptokinase A = target: T1, Streptokinase A (Streptococcus pyogenes serotype M1, UniProt P10520); assay: S. pyogenes streptokinase expression inhibitors, potency, dose response, plasminogen activation absorbance, OD405 (AID 1914); assay type: functional, Streptococcus pyogenes M1 GAS;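 note: secreted streptokinase activity via plasminogen activation per viability signal from cell pellet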
T1 sequence (P10520 whole entry): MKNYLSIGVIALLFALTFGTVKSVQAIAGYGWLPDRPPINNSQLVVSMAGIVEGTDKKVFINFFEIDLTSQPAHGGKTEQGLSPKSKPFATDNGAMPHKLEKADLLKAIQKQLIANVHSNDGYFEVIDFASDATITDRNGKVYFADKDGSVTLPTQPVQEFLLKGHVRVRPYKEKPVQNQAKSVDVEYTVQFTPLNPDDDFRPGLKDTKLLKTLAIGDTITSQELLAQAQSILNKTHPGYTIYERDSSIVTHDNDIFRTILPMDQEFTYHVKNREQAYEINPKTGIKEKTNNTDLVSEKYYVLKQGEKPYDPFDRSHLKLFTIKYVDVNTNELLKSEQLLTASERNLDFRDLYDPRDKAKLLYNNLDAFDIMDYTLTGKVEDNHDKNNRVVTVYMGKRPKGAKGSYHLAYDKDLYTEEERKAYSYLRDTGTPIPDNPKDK

Streptococcus = assay: Group A Streptococcus viability loss, dose response, counter-screen for streptokinase expression inhibitor project, luminescence, BacTiterGlo (AID 1915); assay type: functional, organism-based;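 note: potency for reduction of bacterial viability or growth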
[2] = THP-1 cell cytotoxicity, dose response, cytotoxicity control for non-replicating M. tuberculosis project (AID 489025); assay type: functional
[3] = HepG2 cell cytotoxicity, dose response, cytotoxicity control for non-replicating M. tuberculosis project (AID 489018); assay type: functional; details: Mycobacterium tuberculosis
[4] = Vero E6 cell cytotoxicity, dose response, cytotoxicity control for non-replicating M. tuberculosis project, secondary assay (AID 492998); assay type: functional, VeroE6; details: Vero C1008
cells = assay type: functional
Coagulation factor XII = target: T2, Coagulation factor XII (Homo sapiens, UniProt P00748); assay type: functional;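 note: activated factor XIIa alpha cleaving a fluorogenic AMC peptide substrate; inhibitor potency from loss of enzyme activity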
T2 sequence (P00748 whole entry): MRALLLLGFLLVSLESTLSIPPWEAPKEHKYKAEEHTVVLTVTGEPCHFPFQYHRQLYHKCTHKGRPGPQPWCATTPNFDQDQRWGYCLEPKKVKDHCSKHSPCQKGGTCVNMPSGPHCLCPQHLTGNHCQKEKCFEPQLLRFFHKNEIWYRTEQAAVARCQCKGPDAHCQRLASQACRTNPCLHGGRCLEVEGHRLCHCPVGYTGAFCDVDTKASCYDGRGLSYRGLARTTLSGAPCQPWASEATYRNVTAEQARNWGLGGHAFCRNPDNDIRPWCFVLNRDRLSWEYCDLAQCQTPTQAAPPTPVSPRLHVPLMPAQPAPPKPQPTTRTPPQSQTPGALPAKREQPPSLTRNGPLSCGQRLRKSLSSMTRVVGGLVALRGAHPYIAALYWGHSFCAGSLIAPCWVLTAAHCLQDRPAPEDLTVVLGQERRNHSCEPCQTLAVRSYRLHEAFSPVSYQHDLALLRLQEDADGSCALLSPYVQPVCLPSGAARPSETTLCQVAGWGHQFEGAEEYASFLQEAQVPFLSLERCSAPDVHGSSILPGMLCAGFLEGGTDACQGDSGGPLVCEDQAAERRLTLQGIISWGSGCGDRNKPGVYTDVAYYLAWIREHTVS

[5] = target: DNA dC->dU-editing enzyme APOBEC-3A (Homo sapiens, UniProt P31941); assay: APOBEC3A DNA deaminase inhibitors, dose response, biochemical (AID 504722); assay type: functional
DNA dC->dU-editing enzyme APOBEC-3A, sequence (P31941 whole entry): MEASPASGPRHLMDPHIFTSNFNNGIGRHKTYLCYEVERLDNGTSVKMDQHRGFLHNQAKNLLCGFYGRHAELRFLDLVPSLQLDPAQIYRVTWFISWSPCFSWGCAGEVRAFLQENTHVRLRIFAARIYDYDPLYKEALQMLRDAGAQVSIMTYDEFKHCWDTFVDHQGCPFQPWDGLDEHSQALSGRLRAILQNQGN

[6] = target: DNA dC->dU-editing enzyme APOBEC-3G (Homo sapiens, UniProt Q9HC16); assay: Dose Response confirmation of small molecule APOBEC3G DNA Deaminase Inhibitors via a fluorescence-based single-stranded DNA deaminase assay. [Related pubchem assays (depositor defined):AID493012, AID493028]; assay type: functional
DNA dC->dU-editing enzyme APOBEC-3G, sequence (Q9HC16 whole entry): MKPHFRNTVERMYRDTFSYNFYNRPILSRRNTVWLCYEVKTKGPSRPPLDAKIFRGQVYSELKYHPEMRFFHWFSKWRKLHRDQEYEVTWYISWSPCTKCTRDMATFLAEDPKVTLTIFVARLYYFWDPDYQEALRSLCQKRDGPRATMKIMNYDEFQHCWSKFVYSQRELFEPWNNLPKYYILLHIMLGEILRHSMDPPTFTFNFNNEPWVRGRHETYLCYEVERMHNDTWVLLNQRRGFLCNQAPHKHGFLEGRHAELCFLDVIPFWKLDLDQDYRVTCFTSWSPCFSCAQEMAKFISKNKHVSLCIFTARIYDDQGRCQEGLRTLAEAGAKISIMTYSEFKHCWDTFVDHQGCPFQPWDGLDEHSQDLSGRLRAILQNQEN

[7] = target: G-protein coupled receptor 55 (Homo sapiens, UniProt Q9Y2T6); assay: GPR55 antagonists blocking LPI-driven arrestin recruitment, primary screen, imaging, U2OS, beta-arrestin-GFP, LPI agonist (AID 2013); assay type: functional;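 note: antagonist potency measured as reduced agonist-driven arrestin aggregation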
G-protein coupled receptor 55, sequence (Q9Y2T6 whole entry): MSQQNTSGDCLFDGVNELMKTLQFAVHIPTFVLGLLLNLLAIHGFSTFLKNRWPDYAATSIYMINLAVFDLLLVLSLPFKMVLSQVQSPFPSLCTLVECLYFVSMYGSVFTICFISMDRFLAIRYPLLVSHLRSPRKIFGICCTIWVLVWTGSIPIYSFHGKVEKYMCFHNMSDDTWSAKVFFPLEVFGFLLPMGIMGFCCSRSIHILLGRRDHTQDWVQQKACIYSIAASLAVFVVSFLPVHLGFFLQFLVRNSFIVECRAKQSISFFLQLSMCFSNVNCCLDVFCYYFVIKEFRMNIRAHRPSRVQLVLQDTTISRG

[8] = target: T3, Short transient receptor potential channel 4 (Mus musculus, UniProt Q9QUQ5); assay: mouse TRPC4 channel inhibitors, dose response, cell-based, HEK293 TRPC4/mu-opioid, Fluo-4 calcium (AID 434942); assay type: functional;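 note: potency of inhibitors blocking the TRPC4 calcium response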
T3 sequence (Q9QUQ5 whole entry): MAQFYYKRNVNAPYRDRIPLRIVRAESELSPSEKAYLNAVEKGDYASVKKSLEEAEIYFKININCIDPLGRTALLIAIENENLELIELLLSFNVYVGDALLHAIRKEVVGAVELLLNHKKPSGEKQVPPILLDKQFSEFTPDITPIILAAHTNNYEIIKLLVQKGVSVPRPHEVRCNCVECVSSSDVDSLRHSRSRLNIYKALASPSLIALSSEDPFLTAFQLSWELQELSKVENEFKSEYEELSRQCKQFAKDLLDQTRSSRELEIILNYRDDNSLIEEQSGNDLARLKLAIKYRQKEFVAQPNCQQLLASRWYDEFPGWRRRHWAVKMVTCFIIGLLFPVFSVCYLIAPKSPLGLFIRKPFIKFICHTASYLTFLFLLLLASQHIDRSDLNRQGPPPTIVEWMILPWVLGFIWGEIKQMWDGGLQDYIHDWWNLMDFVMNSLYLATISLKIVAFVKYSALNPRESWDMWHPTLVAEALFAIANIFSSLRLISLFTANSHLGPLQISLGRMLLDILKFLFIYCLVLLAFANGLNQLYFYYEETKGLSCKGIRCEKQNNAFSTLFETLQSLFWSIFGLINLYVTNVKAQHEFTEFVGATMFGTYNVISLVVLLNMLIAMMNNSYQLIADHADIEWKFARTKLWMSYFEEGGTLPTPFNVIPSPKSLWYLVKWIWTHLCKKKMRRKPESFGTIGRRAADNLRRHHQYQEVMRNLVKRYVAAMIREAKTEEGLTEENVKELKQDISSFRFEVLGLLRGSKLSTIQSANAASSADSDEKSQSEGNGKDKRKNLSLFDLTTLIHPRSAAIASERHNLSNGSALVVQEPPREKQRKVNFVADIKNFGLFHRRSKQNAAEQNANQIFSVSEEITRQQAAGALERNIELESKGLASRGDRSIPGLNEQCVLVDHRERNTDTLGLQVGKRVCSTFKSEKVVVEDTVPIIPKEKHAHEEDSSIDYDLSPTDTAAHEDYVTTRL

[9] = target: T4, RNA-binding protein pos-1 (Caenorhabditis elegans, UniProt G5EF15); assay: inhibitors of POS-1/mex-3 RNA binding, dose response, biochemical, fluorescence polarization (AID 1964);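 note: purified POS-1 fused to maltose binding protein made in E. coli; potency of compounds blocking POS-1 binding to fluorescent RNA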
T4 sequence (G5EF15 whole entry): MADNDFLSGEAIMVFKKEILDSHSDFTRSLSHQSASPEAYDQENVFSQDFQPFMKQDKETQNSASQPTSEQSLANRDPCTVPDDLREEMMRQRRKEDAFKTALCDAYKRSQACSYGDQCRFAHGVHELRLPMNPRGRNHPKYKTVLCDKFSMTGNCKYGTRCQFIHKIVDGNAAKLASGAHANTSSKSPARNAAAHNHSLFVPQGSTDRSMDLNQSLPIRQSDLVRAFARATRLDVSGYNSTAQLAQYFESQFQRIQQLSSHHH

[10] = target: T5, Zinc finger protein mex-5 (Caenorhabditis elegans, UniProt Q9XUB2); assay: MEX-5/TCR-2 RNA interaction inhibitors, dose response, biochemical, C. elegans, fluorescence polarization (AID 1960)
T5 sequence (Q9XUB2 whole entry): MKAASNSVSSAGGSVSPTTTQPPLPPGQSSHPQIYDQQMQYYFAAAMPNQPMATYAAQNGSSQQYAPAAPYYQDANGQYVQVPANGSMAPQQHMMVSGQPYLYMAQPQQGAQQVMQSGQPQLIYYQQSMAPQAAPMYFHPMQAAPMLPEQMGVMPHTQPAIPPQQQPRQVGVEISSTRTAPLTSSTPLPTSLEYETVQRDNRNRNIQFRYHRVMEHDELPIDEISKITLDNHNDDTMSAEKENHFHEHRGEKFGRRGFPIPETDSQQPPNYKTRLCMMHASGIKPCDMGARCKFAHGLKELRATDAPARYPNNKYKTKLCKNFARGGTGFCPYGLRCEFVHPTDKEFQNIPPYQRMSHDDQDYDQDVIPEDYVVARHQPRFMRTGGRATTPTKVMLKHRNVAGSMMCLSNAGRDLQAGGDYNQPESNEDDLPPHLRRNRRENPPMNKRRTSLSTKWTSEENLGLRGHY

[11] = target: T6, Mannose-6-phosphate isomerase (Homo sapiens, UniProt P34949); assay: inhibitors of human PMI, primary screen, biochemical, fluorescence intensity, coupled assay (AID 1209)
T6 sequence (P34949 whole entry): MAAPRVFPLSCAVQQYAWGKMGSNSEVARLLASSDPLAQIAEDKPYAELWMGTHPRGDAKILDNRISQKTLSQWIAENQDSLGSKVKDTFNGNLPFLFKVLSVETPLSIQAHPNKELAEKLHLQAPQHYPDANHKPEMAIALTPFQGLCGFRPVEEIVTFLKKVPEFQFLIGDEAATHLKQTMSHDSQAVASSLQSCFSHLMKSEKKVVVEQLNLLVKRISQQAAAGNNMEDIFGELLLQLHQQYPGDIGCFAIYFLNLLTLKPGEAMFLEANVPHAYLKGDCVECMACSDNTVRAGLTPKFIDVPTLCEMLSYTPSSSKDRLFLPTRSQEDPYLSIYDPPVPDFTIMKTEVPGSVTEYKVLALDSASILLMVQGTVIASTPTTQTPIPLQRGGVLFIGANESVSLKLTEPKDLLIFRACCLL

[12] = target: Eukaryotic translation initiation factor 4E (Mus musculus, UniProt P63073); assay: eIF4E–eIF4G protein interaction inhibitors, dose response, biochemical, TR-FRET (AID 855); assay type: functional;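 note: potency for disrupting eIF4E binding to eIF4GI seen as loss of FRET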
Eukaryotic translation initiation factor 4E, sequence (P63073 whole entry): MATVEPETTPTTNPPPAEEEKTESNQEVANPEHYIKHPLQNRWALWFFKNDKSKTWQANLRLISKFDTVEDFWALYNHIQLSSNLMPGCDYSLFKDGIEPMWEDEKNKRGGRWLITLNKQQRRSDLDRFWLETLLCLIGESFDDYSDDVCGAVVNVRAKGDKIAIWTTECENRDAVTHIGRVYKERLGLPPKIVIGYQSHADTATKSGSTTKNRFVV

Nonstructural protein 1 = Nonstructural protein 1 (Influenza A virus, UniProt Q194T2); assay type: functional, Influenza A virus (A/California/07/2009(H1N1))
Nonstructural protein 1, sequence (Q194T2 whole entry): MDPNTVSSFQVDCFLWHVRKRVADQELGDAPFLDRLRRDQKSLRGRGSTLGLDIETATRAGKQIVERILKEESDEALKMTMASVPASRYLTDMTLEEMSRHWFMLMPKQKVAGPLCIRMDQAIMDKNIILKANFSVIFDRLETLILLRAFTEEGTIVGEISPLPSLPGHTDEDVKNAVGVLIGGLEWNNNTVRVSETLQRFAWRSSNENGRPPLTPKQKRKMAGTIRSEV

[13] = target: Ras and Rab interactor 1/Tyrosine-protein kinase ABL1 (Homo sapiens, UniProt P00519+Q13671); assay type: functional;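 note: biochemical TR-FRET dose-response test measuring inhibition of binding between Rin1 and Abl proteins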
Ras and Rab interactor 1/Tyrosine-protein kinase ABL1, sequence (P00519 whole entry): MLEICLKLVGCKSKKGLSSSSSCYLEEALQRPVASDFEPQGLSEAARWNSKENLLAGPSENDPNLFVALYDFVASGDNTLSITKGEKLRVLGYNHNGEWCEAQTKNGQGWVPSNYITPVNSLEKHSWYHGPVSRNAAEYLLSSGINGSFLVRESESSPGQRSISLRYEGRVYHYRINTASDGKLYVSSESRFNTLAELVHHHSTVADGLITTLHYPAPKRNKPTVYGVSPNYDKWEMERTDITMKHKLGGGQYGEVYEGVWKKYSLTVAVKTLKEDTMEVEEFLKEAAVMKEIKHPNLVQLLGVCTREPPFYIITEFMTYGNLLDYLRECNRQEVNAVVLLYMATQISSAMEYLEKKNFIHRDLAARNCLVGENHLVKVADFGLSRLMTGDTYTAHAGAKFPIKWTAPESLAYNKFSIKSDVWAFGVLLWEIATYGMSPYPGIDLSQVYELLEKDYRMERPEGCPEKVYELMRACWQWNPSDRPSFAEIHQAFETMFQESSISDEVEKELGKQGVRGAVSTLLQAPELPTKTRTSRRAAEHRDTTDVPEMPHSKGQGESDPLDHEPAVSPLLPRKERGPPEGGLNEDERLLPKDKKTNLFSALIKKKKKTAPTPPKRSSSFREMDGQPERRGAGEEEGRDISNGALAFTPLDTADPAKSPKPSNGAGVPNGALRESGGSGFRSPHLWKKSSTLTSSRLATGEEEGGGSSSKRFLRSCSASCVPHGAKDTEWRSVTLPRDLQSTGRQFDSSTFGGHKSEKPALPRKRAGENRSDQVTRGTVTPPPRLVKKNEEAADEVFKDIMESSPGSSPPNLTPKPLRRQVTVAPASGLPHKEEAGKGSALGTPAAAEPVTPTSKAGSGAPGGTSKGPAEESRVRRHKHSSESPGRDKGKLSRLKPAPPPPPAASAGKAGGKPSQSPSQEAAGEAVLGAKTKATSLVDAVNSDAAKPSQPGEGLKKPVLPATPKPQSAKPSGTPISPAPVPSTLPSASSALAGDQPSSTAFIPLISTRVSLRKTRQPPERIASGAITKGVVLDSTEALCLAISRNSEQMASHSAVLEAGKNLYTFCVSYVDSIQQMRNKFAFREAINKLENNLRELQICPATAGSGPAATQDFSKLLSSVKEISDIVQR
Ras and Rab interactor 1/Tyrosine-protein kinase ABL1, sequence (Q13671 whole entry): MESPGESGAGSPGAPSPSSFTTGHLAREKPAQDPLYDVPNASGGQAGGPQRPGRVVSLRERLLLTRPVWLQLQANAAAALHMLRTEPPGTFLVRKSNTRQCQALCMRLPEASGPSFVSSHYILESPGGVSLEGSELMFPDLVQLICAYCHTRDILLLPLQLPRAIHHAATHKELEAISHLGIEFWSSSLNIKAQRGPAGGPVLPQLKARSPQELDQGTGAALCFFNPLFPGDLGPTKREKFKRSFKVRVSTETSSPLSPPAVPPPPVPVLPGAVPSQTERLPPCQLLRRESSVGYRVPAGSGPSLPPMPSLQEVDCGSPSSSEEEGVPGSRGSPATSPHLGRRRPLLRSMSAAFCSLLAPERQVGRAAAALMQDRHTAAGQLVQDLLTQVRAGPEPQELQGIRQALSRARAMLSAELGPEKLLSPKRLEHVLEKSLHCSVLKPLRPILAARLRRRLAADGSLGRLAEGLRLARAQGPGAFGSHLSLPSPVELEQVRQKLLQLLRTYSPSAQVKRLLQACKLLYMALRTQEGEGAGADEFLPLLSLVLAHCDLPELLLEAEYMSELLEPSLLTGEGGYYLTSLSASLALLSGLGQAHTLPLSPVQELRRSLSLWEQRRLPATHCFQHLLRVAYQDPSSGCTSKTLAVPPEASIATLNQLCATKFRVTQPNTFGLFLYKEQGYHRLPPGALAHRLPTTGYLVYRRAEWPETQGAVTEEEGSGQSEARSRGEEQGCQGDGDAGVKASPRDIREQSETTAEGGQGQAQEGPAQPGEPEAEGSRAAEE

[14] = target: T7, Long-chain-fatty-acid--AMP ligase FadD28 (Mycobacterium tuberculosis, UniProt P9WQ59); assay: Fluorescence polarization aasay to screen for inhibitors that compete for the binding of FadD28 to a bisubstrate Measured in Biochemical System Using Plate Reader - 2147-01_Inhibitor_Dose_CherryPick_Activity.; assay type: functional, Mycobacterium tuberculosis H37Rv
T7 sequence (P9WQ59 whole entry): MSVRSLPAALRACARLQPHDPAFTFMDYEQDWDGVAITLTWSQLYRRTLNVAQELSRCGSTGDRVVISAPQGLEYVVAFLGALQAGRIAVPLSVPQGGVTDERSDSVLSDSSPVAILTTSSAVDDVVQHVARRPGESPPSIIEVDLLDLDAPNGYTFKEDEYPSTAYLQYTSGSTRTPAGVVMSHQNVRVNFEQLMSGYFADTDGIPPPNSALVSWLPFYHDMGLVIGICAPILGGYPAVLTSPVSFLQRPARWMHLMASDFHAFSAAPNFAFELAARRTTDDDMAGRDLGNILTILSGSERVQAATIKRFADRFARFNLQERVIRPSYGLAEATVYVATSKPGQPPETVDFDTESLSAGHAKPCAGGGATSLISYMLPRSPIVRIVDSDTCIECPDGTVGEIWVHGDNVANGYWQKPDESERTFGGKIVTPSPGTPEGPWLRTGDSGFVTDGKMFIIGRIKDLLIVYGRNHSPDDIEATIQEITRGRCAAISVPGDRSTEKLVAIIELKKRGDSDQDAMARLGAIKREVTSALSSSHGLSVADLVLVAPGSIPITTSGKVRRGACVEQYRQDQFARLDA

Protein Tat = target: T8, Protein Tat (Human immunodeficiency virus type 1 group M subtype B (isolate HXB2)(HIV-1), UniProt P04608); assay type: functional;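 note: tat binding to TAR RNA read out by fluorescence polarization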
T8 sequence (P04608 whole entry): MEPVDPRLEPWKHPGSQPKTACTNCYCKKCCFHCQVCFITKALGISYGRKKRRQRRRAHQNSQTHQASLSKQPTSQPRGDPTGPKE

O=C(Nc1nnc(-c2ccncc2)o1)c1ccc(Br)s1
EC50 [1]: 3.57 µM (active) | EC50 (Streptokinase A): > 150 µM (not active) | EC50 (Streptococcus): 11.8 µM (active) | CC50 [2]: 23.7 µM (active) | CC50 [3]: 19.3 µM (active) | CC50 [4]: 16.8 µM (active) | IC50 (cells): 18.3 µM (active)

Cc1nc(SCc2ccccc2)c2ccsc2n1
IC50 (Coagulation factor XII): > 50 µM (inactive)

CCn1c(S)nnc1CSCc1ccccc1
IC50 [5]: > 100 µM (inactive) | IC50 [6]: 8.31 µM (active)

CCOC(=O)c1c(N)sc(C(O)(C(F)(F)F)C(F)(F)F)c1-c1ccccc1
IC50 [7]: 3.66 µM (active) | EC50 [8]: 7.5 µM (active)

N#Cc1cnn(Cc2ccc(Cl)cc2)c1N
IC50 (Coagulation factor XII): > 50 µM (inactive)

CC(C)CC(=O)NC(Oc1ccc(Cl)cc1)C(Cl)(Cl)Cl (centres undefined)
IC50 [7]: 1.17 µM (active)

Cc1ccc(-n2c(C)cc(C3=NN=C(NC4CC4)SC3)c2C)cc1C
CC50 [2]: 20 µM (active) | CC50 [3]: > 20 µM (active) | CC50 [4]: > 20 µM (active) | IC50 (cells): 39 µM (active)

CC(=O)NC(CC(=O)OCC(=O)c1c(N)n(C)c(=O)n(C)c1=O)c1ccccc1 (centres undefined)
IC50 (Coagulation factor XII): > 50 µM (inactive)

Cc1c2cc(O)c(=O)cc-2oc2cc(O)c(O)cc12
EC50 [9]: 1.9 µM (inconclusive) | EC50 [10]: 0.082 µM (active) | IC50 [11]: 3.55 µM (active) | IC50 [12]: 43.3 µM (inactive) | IC50 (Nonstructural protein 1): 30.5 µM (active) | IC50 [13]: 0.835 µM (active) | AC50 [14]: 4.65 µM (active) | IC50 (Protein Tat): 31.3 µM (inconclusive) and > 52.2 µM (active)

Cc1cc(-c2nnc(S)n2/N=C/c2ccc(C)o2)n[nH]1
IC50 [5]: > 100 µM (inactive) | IC50 [6]: 5.66 µM (active)
